Assay results reported in patent US4478746A, “Glycosylated insulin derivatives” (priority 1984, dated 1984).

Columns and labels:
blood sugar level = experiment: Blood sugar depression (BSD) test; assay type: in vivo; details: rats fasted twenty hours, 1 mg/kg intraperitoneal, 20 minutes after injection; control (baseline) 64.62 ± 0.61
Description: The bioactivity of the glycosated insulins described herein was determined by a blood sugar depression test and compared to commercial insulin preparations and controls. In this test, replicates of standard laboratory rats were fasted for twenty hours. After measuring baseline blood sugar levels, a 1 mg/kg dose of either free or glycosylated insulin was injected via an intraperitoneal route. The blood sugar level in each rat was measured colormetrically 20 minutes after the injection.

[1] = Bulk aggregation study (stirred aqueous solutions, aggregation visually observed); assay type: physicochemical; details: aqueous solution 0.1 mg/ml insulin, stirred at 1555 rpm until aggregation visually observed or up to two weeks
Description: (§1) Bulk aggregation studies with free insulin compared with glycosylated insulins were carried out by two methods. In a bulk aggregation study, various aqueous insulin and glycosylated insulin solutions containing 0.1 mg/ml of insulin were stirred at 1555 rpm until aggregation was visually observed or up to two weeks. In a second test, solutions containing the same insulin concentration were deposited on polyurethane (Biomer) and microscopically observed for aggregation.

[2] = Aggregation test on polyurethane (Biomer), microscopically observed; assay type: physicochemical; details: 0.1 mg/ml insulin solution deposited on polyurethane (Biomer)
Description: as §1

Which “Blood Sugar Concentration after 20 min. IP. injection (± S.E.M.)” value (“Blood Sugar Concentration” below) (blood sugar level) does the source give for Glucosamidosuccinyl insulin here?
The value was 37.80 ± 1.13 mg/dL.

For “SIGMA INS (21F-0375): commercial insulin preparation (Sigma) used as comparison”, which “Blood Sugar Concentration” value (blood sugar level) is on record?
The value was 32.66 ± 1.10 mg/dL.

With glucosamidoglutaryl insulin as the substance, how does the “Blood Sugar Concentration” value (blood sugar level) read?
The value was 45.92 ± 3.30 mg/dL.

For “insulin [Free Insulin, reference compound]”, which “Time required for aggregation, Bulk” value [1] is on record?
Its value is 2 to 3 days.

What about the “Time required for aggregation, Polyurethane” value [2] of the same substance?
The value was 1 to 2 days.

What does the source list for “p-(α-D-glucopyranosyloxy)-phenyl-N-succinamyl insulin”?
Time required for aggregation, Bulk [1]: 2 weeks; Time required for aggregation, Polyurethane [2]: 2 weeks; Blood Sugar Concentration after 20 min. IP. injection (± S.E.M.) (blood sugar level): 40.87 ± 1.32 mg/dL

What does the source list for “p-(α-D-glucopyranosyloxy)-phenyl-thiocarbamoyl Insulin”?
Time required for aggregation, Bulk [1]: 2 weeks; Time required for aggregation, Polyurethane [2]: 8 days; Blood Sugar Concentration after 20 min. IP. injection (± S.E.M.) (blood sugar level): 44.67 ± 2.21 mg/dL

With “p-(α-D-mannopyranosyloxy)-phenyl-N-glutaramyl insulin” as the substance, how does the “Blood Sugar Concentration” value (blood sugar level) read?
The value was 40.60 ± 0.80 mg/dL.

Which “Time required for aggregation, Bulk” value [1] does the source give for “p-(α-D-mannopyranosyloxy)-phenyl-N-succinamyl insulin” here?
The value was 2 weeks.

What about the “Time required for aggregation, Polyurethane” value [2] of the same substance?
Its value is 2 weeks.

And the “Blood Sugar Concentration” value (blood sugar level)?
The value was 44.80 ± 2.37 mg/dL.

With “p-α-D-glucopyranosyloxy)-phenyl-N-glutaramyl insulin” as the substance, how does the “Blood Sugar Concentration” value (blood sugar level) read?
Its value is 40.40 ± 2.53 mg/dL.
